Results from patent US7935815B2, “Imidazoyl pyridine compounds and salts thereof” (Eisai R&D Management Co., Ltd., priority 2007, dated 2011).
pIC50: −log10 of the molar value.

System: Aβ42 production
Assay: Quantification of Aβ peptide in culture of neurons from rat fetus brain (Aβ ELISA)
Assay type: cell-based
Conditions: Rattus norvegicus, Neuron, 72 h, rat primary neuronal culture (embryonic day 18 Wistar rat cerebral cortex); cultured three days after addition of compound; Aβx-42 ELISA of the medium; read-out: Aβ42 production reducing effect IC50
Description: Quantification of Aβ Peptide in Culture of Neurons from Rat Fetus Brain
(1) Rat Primary Neuronal Culture
Primary neuronal cultures were prepared from the cerebral cortex of embryonic day 18 Wistar rats (Charles River Japan, Yokohama, Japan). Specifically, the embryos were aseptically removed from pregnant rats under ether anesthesia. The brain was isolated from the embryo and immersed in an ice-cold L-15 medium (Invitrogen Corp. Cat #11415-064, Carlsbad, Calif., USA, or SIGMA L1518, for example). The cerebral cortex was collected from the isolated brain under a stereoscopic microscope. The cerebral cortex fragments collected were enzymatically treated in an enzyme solution containing 0.25% trypsin (Invitrogen Corp. Cat #15050-065, Carlsbad, Calif., USA) and 0.01% DNase (Sigma D5025, St. Louis, Mo., USA) at 37° C. for 30 minutes to disperse the cells. Here, the enzymatic reaction was stopped by adding inactivated horse serum to the solution. The enzymatically treated solution was centrifuged at 1,500 rpm for five minutes to remove the supernatant. 5 to 10 ml of a medium was added to the resulting cell mass. Neurobasal medium (Invitrogen Corp. Cat #21103-049, Carlsbad, Calif., USA) supplemented with 2% B27 supplement (Invitrogen Corp. Cat #17504-044, Carlsbad, Calif., USA), 25 μM 2-mercaptoethanol (2-ME, WAKO Cat #139-06861, Osaka, Japan), 0.5 mM L-glutamine (Invitrogen Corp. Cat #25030-081, Carlsbad, Calif., USA), and Antibiotics-Antimycotics (Invitrogen Corp. Cat #15240-062, Carlsbad, Calif., USA) was used as the medium (Neurobasal/B27/2-ME). However, the above Neurobasal medium not supplemented with 2-ME (Neurobasal/B27) was used for the assay. The cells were redispersed by mild pipetting of the cell mass to which the medium was added. The cell dispersion was filtered through a 40-μm nylon mesh (Cell Strainer, Cat #35-2340, Becton Dickinson Labware, Franklin Lakes, N.J., USA) to remove the remaining cell mass, and thus a neuronal cell suspension was obtained. The neuronal cell suspension was diluted with the medium and then plated in a volume of 100 μl/well at an initial cell density of 5×10^5 cells/cm^2 in a 96-well polystyrene culture plate pre-coated with poly-L or D-lysine (Falcon Cat #35-3075, Becton Dickinson Labware, Franklin Lakes, N.J., USA coated with poly-L-lysine using the method shown below, or BIOCOAT™ cell environments Poly-D-lysine cell ware 96-well plate, Cat #35-6461, Becton Dickinson Labware, Franklin Lakes, N.J., USA). Poly-L-lysine coating was carried out as follows. 100 μg/ml of a poly-L-lysine (SIGMA P2636, St. Louis, Mo., USA) solution was aseptically prepared with a 0.15 M borate buffer (pH 8.5). 100 μl/well of the solution was added to the 96-well polystyrene culture plate and incubated at room temperature for one or more hours or at 4° C. overnight or longer. The coated 96-well polystyrene culture plate was washed with sterile water four or more times, and then dried or rinsed with, for example, sterile PBS or medium, and used for cell plating. The plated cells were cultured in the culture plate at 37° C. in 5% CO2-95% air for one day. Then, the total amount of the medium was replaced with a fresh Neurobasal™/B27/2-ME medium, and then the cells were cultured for further three days.
The drug was added to the culture plate on Day 4 of culture as follows. The total amount of the medium was removed from the wells, and 180 μl/well of Neurobasal medium not containing 2-ME and containing 2% B-27 (Neurobasal/B27) was added thereto. A solution of the test compound in dimethyl sulfoxide (hereinafter abbreviated as DMSO) was diluted with Neurobasal/B27 at 10-fold of the final concentration. 20 μl/well of the dilution was added to and sufficiently mixed with the medium. The final DMSO concentration was 1% or less. Only DMSO was added to the control group.
The cells were cultured for three days after addition of the compound, and the total amount of the medium was collected. […]

Row | Compound | pIC50
1 | COc1nc(/C=C/c2nc3n(n2)CCC[C@H]3c2cc(F)c(F)c(F)c2)ccc1-n1cnc(C)c1 (single isomer, unassigned) [Example 169, (−)-2-{(E)-2-[6-methoxy-5-(4-methyl-1H-imidazol-1-yl)pyridin-2-yl]vinyl}-8-(3,4,5-trifluorophenyl)-5,6,7,8-tetrahydro-[1,2,4]triazolo[1,5-a]pyridine] | 7.66
2 | COc1nc(/C=C/c2nc3n(n2)CCCC3c2ccc(F)c(F)c2)ccc1-n1cnc(C)c1 (single isomer, unassigned) [Example 171, (−)-8-(3,4-difluorophenyl)-2-{(E)-2-[6-methoxy-5-(4-methyl-1H-imidazol-1-yl)pyridin-2-yl]vinyl}-5,6,7,8-tetrahydro-[1,2,4]triazolo[1,5-a]pyridine] | 7.77
3 | COc1nc(/C=C/c2nc3n(n2)CCCC3c2ccc(F)cc2)ccc1-n1cnc(C)c1 (single isomer, unassigned) [Example 173, (−)-8-(4-fluorophenyl)-2-{(E)-2-[6-methoxy-5-(4-methyl-1H-imidazol-1-yl)pyridin-2-yl]vinyl}-5,6,7,8-tetrahydro-[1,2,4]triazolo[1,5-a]pyridine] | 7.43
4 | COc1nc(/C=C/c2nc3n(n2)CCC[C@@H]3c2ccc(F)c(Cl)c2)ccc1-n1cnc(C)c1 (single isomer, unassigned) [Example 175, (−)-8-(3-chloro-4-fluorophenyl)-2-{(E)-2-[6-methoxy-5-(4-methyl-1H-imidazol-1-yl)pyridin-2-yl]vinyl}-5,6,7,8-tetrahydro-[1,2,4]triazolo[1,5-a]pyridine] | 7.42
5 | COc1nc(/C=C/c2nc3n(n2)CCC[C@@H]3c2cc(F)c(F)cc2F)ccc1-n1cnc(C)c1 (single isomer, unassigned) [Example 179, (−)-8-(2,4,5-trifluorophenyl)-2-{(E)-2-[6-methoxy-5-(4-methyl-1H-imidazol-1-yl)pyridin-2-yl]vinyl}-5,6,7,8-tetrahydro[1,2,4]triazolo[1,5-a]pyridine] | 7.66
6 | COc1nc(/C=C/c2nc3n(n2)CCC[C@@H]3c2cc(F)ccc2F)ccc1-n1cnc(C)c1 (single isomer, unassigned) [Example 183, (−)-8-(2,5-difluorophenyl)-2-{(E)-2-[6-methoxy-5-(4-methyl-1H-imidazol-1-yl)pyridin-2-yl]vinyl}-5,6,7,8-tetrahydro[1,2,4]triazolo[1,5-a]pyridine] | 7.32
7 | COc1nc(/C=C/c2nc3n(n2)CCC[C@H]3c2ccc(F)cc2Br)ccc1-n1cnc(C)c1 (single isomer, unassigned) [Example 185, (−)-8-(2-bromo-4-fluorophenyl)-2-{(E)-2-[6-methoxy-5-(4-methyl-1H-imidazol-1-yl)pyridin-2-yl]vinyl}-5,6,7,8-tetrahydro-[1,2,4]triazolo[1,5-a]pyridine] | 7.47
8 | COc1nc(/C=C/c2nc3n(n2)CCC[C@H]3c2ccc(F)cc2Cl)ccc1-n1cnc(C)c1 (single isomer, unassigned) [Example 187, (−)-8-(2-chloro-4-fluorophenyl)-2-{(E)-2-[6-methoxy-5-(4-methyl-1H-imidazol-1-yl)pyridin-2-yl]vinyl}-5,6,7,8-tetrahydro-[1,2,4]triazolo[1,5-a]pyridine] | 7.42
9 | COc1nc(/C=C/c2nc3n(n2)CCC[C@@H]3c2cccc(F)c2)ccc1-n1cnc(C)c1 (single isomer, unassigned) [Example 189, (−)-8-(3-fluorophenyl)-2-{(E)-2-[6-methoxy-5-(4-methyl-1H-imidazol-1-yl)pyridin-2-yl]vinyl}-5,6,7,8-tetrahydro[1,2,4]triazolo[1,5-a]pyridine] | 7.37
10 | COc1nc(/C=C/c2nc3n(n2)CCC[C@H]3c2ccccc2Cl)ccc1-n1cnc(C)c1 (single isomer, unassigned) [Example 193, (−)-8-(2-chlorophenyl)-2-{(E)-2-[6-methoxy-5-(4-methyl-1H-imidazol-1-yl)pyridin-2-yl]vinyl}-5,6,7,8-tetrahydro-[1,2,4]triazolo[1,5-a]pyridine] | 7.10
11 | COc1nc(/C=C/c2nc3n(n2)CCC[C@H]3c2ccccc2C(F)(F)F)ccc1-n1cnc(C)c1 (single isomer, unassigned) [Example 195] | 7.77
12 | COc1nc(/C=C/c2nc3n(n2)CCC[C@H]3c2cccc3ccccc23)ccc1-n1cnc(C)c1 (single isomer, unassigned) [Example 199, (+)-2-{(E)-2-[6-methoxy-5-(4-methyl-1H-imidazol-1-yl)pyridin-2-yl]vinyl}-8-(naphthalen-1-yl)-5,6,7,8-tetrahydro-[1,2,4]triazolo[1,5-a]pyridine] | 7.64
13 | COc1nc(/C=C/c2nc3n(n2)CCC[C@H]3c2ccccc2)ccc1-n1cnc(C)c1 (single isomer, unassigned) [Example 207, (−)-2-{(E)-2-[6-methoxy-5-(4-methyl-1H-imidazol-1-yl)pyridin-2-yl]vinyl}-8-phenyl-5,6,7,8-tetrahydro-[1,2,4]triazolo[1,5-a]pyridine] | 7.55
14 | COc1cc(/C=C/c2nc3n(n2)CCCC3c2ccc(F)cc2)cnc1-n1cnc(C)c1 (single isomer, unassigned) [Example 212, (−)-8-(4-fluorophenyl)-2-{(E)-2-[5-methoxy-6-(4-methyl-1H-imidazol-1-yl)pyridin-3-yl]vinyl}-5,6,7,8-tetrahydro-[1,2,4]triazolo[1,5-a]pyridine] | 7.00
15 | COc1cc(/C=C/c2nc3n(n2)CCCC3c2ccc(F)c(F)c2)cnc1-n1cnc(C)c1 (single isomer, unassigned) [Example 218, (−)-8-(3,4-difluorophenyl)-2-{(E)-2-[5-methoxy-6-(4-methyl-1H-imidazol-1-yl)pyridin-3-yl]vinyl}-5,6,7,8-tetrahydro-[1,2,4]triazolo[1,5-a]pyridine] | 7.16
16 | COc1cc(/C=C/c2nc3n(n2)CCC[C@@]3(C#N)c2cc(F)c(F)c(F)c2)cnc1-n1cnc(C)c1 (single isomer, unassigned) [Example 229, (−)-2-{(E)-2-[5-methoxy-6-(4-methyl-1H-imidazol-1-yl)pyridin-3-yl]vinyl}-8-(3,4,5-trifluorophenyl)-5,6,7,8-tetrahydro-[1,2,4]triazolo[1,5-a]pyridine-8-carbonitrile] | 6.77
17 | COc1nc(/C=C/c2nc3n(n2)CC[C@@H]3c2cc(F)c(F)c(F)c2)ccc1-n1cnc(C)c1 (single isomer, unassigned) [Example 254, (−)-2-{(E)-2-[6-methoxy-5-(4-methyl-1H-imidazol-1-yl)pyridin-2-yl]vinyl}-7-(3,4,5-trifluorophenyl)-6,7-dihydro-5H-pyrrolo[1,2-b][1,2,4]triazole] | 7.30
18 | COc1nc(/C=C/c2nc3n(n2)CCOC3c2ccc(Cl)cc2)ccc1-n1cnc(C)c1 (single isomer, unassigned) [Example 262, (−)-8-(4-chlorophenyl)-2-{(E)-2-[6-methoxy-5-(4-methyl-1H-imidazol-1-yl)pyridin-2-yl]vinyl}-5,6-dihydro-8H-[1,2,4]triazolo[5,1-c][1,4]oxazine] | 7.13
19 | COc1nc(/C=C/c2nc3n(n2)CCC[C@H]3c2cccc(F)c2F)ccc1-n1cnc(C)c1 (single isomer, unassigned) [Example 280, (−)-8-(2,3-difluorophenyl)-2-{(E)-2-[6-methoxy-5-(4-methyl-1H-imidazol-1-yl)pyridin-2-yl]vinyl}-5,6,7,8-tetrahydro-[1,2,4]triazolo[1,5-a]pyridine] | 7.74
